Data on 1 compound can be found in article PMC6801739, “Antitumor Activity of a Novel Tyrosine Kinase Inhibitor AIU2001 Due to Abrogation of the DNA Damage Repair in Non-Small Cell Lung Cancer Cells” (International Journal of Molecular Sciences, 2019).

One data set concerns the target T1, PDGFRα(D842V) (Homo sapiens, UniProt P16234, D842V).
T1 construct: purchased Eurofins Pharma Discovery (KinaseProfiler); IC50 values by Reaction Biology Corp
In words: Kinase profiling at 10 μM (Eurofins). It is filed as biochemical. To be noted: read-out: Inhibitory activity.

Another data set concerns the target T2, ALK (Homo sapiens, UniProt Q9UM73).
T2 construct: purchased Eurofins Pharma Discovery (KinaseProfiler); IC50 values by Reaction Biology Corp
The experiment in a line: Kinase profiling at 10 μM (Eurofins). It counts as biochemical. To be noted: read-out: Inhibitory activity.

Another data set relates to A549 xenografts. The experiment in a line: A549 tumor xenograft mouse model. To be noted: 20 mg/kg i.p. once per two or three days, five times. It counts as in vivo, BALB/c nu/nu mice. On the procedure:
We next determined whether the antitumor effect associated with in vitro AIU2001 treatment could be translated into an in vivo xenograft mouse model. Mice were subcutaneously (s.c.) implanted with A549 cells in the right hind leg. When the tumors were palpable (average […]: 150 mm^3; 14days post-implantation), mice were intraperitoneally (i.p.) administered 20 mg/kg AIU2001 or DMSO once per two or three days for five times in total. […] At necropsy, the average tumor weight of mice treated with AIU2001 or DMSO was 1.2 g or 2.8 g, respectively (Figure 2B,C).
Figure 2 AIU2001 inhibited tumor growth of A549 xenografts in nude mice. (A) A549 cells were s.c. injected into the thigh of the right hind leg of BALB/c nu/nu mice (n = 4/group). Two weeks after tumor cell injection, AIU2001 (20 mg/kg) or DMSO was administered (i.p.) once per two or three days for five times in total. The longest (L) and shortest (W) tumor axes were measured, and tumor volume (mm^3) was calculated as L × W^2/2. The data shown represent the average tumor volume (* p < 0.05). (B) The weight of the resected tumors was measured at the end of the experiment (*** p < 0.001). (C) Image of resected tumors from mice. (D) The body weights of A549 tumor xenograft mice were determined twice weekly during the experiments.
A549 human lung cancer cell xenografts were initially established by s.c. implanting 1 × 10^6 cultured cells into the thigh of the right hind leg of six week old mice. When tumor volumes had reached approximately 150 mm^3, AIU2001 ([…]) was administered i.p. once per two or three days for five times in total. All animal experiments were reviewed and approved by the Institutional Animal Care & Use Committee of Korea Institute of Radiological and Medical Sciences (kirams2018-0063, 6 December 2018).
Two axes of the tumor (L, longest axis; W, shortest axis) were measured twice per week after irradiation using Vernier calipers. Tumor volume was calculated as (L × W^2)/2 (mm^3).

The subject of data set [1] is A549 cells. The experiment in a line: γ-H2AX immunofluorescence foci assay. To be noted: 5 μM. It counts as cell-based, human. On the procedure: (§1) For γ-H2AX and 4′,6-diamidino-2-phenylindole (DAPI) staining, cells were fixed in 4% paraformaldehyde for 15 min at room temperature and permeabilized with 0.1% Triton X-100 in PBS for 20 min. The cells were then incubated with 1:200 dilution of anti-phosho-H2AX (Ser139) antibody overnight at 4 °C. AlexaFluor 594-conjugated anti-mouse IgG antibody (Abcam, Cambridge, UK) was used at 1:400 dilution for 1 h at room temperature. The slides were mounted in mounting medium (DAKO, Santa Clara, CA, USA) with DAPI (ThermoFisher Scientific) before imaging. Images were acquired using an LSM880 laser scanning microscope (ZEISS, Jena, Germany). Fluorescent images were captured using the appropriate filters. Images were analyzed using the Image J and ZEN software.

For data set [2], the system named is H1299 cells. In words: γ-H2AX immunofluorescence foci assay. It counts as cell-based, human. To be noted: 5 μM. The procedure: as §1
The target of a further data set is T3, CK2 (Homo sapiens, UniProt P68400).
T3 construct: purchased Eurofins Pharma Discovery (KinaseProfiler); IC50 values by Reaction Biology Corp
In words: Kinase profiling at 10 μM (Eurofins). It is filed as biochemical. To be noted: read-out: Inhibitory activity.

The target in another data set is T4, SRC (1-530) (Homo sapiens, UniProt P12931).
T4 construct: purchased Eurofins Pharma Discovery (KinaseProfiler); IC50 values by Reaction Biology Corp
The experiment in a line: Kinase profiling at 10 μM (Eurofins). To be noted: read-out: Inhibitory activity. It counts as biochemical.

The subject of data set [3] is A549 cells. In words: Detection of intracellular ROS (CM-H2DCFDA, flow cytometry). To be noted: 5 μM, 24 h. It counts as cell-based, human. On the procedure:
(§2) DMSO- or AIU2001-treated cells (5 × 10^5) were further treated with 10 μM CM-H2DCFH-DA for 30min and then washed with PBS before trypsinization. After detaching with trypsin, the cells were collected, washed, and resuspended in PBS. ROS inhibition was evaluated by treating cells with 5 mM NAC 2 h prior to AIU2001 treatment. Intracellular ROS levels were detected using a flow cytometer (CyFlow cube 6) at excitation/emission wavelengths of 488/525 nm.

Data set [4] deals with H1299 cells. The description is as above. It is filed as cell-based, human. To be noted: 5 μM, 24 h. On the procedure:
as §2

The next data set has as its system Molm-13 cells. In words: Immunoblot of phospho-STAT5. It is filed as cell-based, human. To be noted: 1 h. On the procedure:
(§3) Cell lysates were prepared by extracting proteins with TNN buffer (40 mM Tris-Cl pH 8.0, 0.2% NP-40, 120 mM NaCl) or radioimmunoprecipitation assay (RIPA) lysis buffer (Millipore, Billerica MA, USA) supplemented with a protease inhibitor cocktail (Thermo Fisher Scientific, Rockford, IL, USA). Equal amounts of proteins were separated using SDS-PAGE on 8–13% gels, and transferred to nitrocellulose membranes (Bio-Rad, Hercules, CA, USA). The membranes were blocked with 5% skim milk in Tris-buffered saline-Tween 20 (TBST) (150 mM NaCl, 10 mM Tris, 0.2% Tween20), followed by overnight incubation with primary antibodies at 4 °C. The blots were developed using peroxidase-conjugated secondary antibody and the immunoreactive proteins were visualized using enhanced chemiluminescence (ECL) reagents, according to the manufacturer’s recommendations (Amersham, GE Healthcare, Buckingamshire, UK). The protein bands were visualized using a digital imaging system (ImageQuant LAS 4000 mini; GE Healthcare, UK). The protein levels were analyzed using Image J software (National Institutes of Health, Bethesda, MD, USA). Experiments were repeated at least thrice.
(§4) Supplementary Figure 3. AIU2001 inhibited downstream effector STAT5 of FLT3 signaling in
(§5) FLT3(ITD)-AML cells. […]
(§6) AIU2001 for 1h. Cell lysates were prepared and analyzed using immunoblotting for detecting […]

For a further data set, the system named is MV4-11 cells. In words: Immunoblot of phospho-STAT5. To be noted: 1 h. It counts as cell-based, human. On the procedure: as §3, §4, §5, §6
The next data set concerns the target T5, DAPK1 (Homo sapiens, UniProt P53355).
T5 construct: purchased Eurofins Pharma Discovery (KinaseProfiler); IC50 values by Reaction Biology Corp
In words: Kinase profiling at 10 μM (Eurofins). It is filed as biochemical. To be noted: read-out: Inhibitory activity.

T2 sequence (Q9UM73 19-1620): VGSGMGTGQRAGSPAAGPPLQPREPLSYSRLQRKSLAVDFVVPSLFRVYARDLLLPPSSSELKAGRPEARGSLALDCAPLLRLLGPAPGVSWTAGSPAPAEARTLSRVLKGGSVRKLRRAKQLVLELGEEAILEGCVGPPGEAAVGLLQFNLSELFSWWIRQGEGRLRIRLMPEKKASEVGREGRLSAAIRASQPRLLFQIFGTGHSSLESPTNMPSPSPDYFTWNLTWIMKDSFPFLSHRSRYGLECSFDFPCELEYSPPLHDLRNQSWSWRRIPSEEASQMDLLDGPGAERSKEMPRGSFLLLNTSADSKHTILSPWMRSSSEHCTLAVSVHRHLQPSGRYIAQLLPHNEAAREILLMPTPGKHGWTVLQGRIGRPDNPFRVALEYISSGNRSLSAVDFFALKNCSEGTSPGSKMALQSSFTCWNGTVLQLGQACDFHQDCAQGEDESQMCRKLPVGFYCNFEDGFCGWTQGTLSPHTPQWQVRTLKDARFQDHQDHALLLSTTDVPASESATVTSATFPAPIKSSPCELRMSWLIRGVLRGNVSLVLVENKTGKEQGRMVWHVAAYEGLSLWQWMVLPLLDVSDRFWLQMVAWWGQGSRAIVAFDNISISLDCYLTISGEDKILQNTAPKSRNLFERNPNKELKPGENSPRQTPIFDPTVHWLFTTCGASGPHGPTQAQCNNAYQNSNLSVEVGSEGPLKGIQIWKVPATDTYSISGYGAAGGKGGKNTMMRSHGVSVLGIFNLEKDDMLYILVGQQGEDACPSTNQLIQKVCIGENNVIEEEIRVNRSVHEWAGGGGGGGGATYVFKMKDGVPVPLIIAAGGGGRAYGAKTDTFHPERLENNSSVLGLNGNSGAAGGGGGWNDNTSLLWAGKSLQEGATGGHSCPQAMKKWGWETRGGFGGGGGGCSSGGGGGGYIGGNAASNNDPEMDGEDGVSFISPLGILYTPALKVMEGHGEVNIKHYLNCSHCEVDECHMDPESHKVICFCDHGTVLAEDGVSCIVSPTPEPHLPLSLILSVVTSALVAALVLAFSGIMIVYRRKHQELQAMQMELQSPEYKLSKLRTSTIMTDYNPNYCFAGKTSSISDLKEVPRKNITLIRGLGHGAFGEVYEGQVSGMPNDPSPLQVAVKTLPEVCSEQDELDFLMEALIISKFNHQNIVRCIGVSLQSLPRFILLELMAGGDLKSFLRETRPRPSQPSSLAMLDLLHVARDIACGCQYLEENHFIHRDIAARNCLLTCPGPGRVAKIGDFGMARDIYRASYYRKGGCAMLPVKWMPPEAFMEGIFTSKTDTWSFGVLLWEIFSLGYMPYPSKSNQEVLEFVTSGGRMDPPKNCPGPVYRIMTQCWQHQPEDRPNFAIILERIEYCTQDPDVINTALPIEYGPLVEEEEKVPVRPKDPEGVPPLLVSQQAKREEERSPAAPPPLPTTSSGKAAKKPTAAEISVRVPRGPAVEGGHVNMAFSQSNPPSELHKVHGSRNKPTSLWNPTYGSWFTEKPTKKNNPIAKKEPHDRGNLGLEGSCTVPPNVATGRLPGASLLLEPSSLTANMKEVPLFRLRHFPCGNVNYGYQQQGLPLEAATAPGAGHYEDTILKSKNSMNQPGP
T5 sequence (P53355 whole entry): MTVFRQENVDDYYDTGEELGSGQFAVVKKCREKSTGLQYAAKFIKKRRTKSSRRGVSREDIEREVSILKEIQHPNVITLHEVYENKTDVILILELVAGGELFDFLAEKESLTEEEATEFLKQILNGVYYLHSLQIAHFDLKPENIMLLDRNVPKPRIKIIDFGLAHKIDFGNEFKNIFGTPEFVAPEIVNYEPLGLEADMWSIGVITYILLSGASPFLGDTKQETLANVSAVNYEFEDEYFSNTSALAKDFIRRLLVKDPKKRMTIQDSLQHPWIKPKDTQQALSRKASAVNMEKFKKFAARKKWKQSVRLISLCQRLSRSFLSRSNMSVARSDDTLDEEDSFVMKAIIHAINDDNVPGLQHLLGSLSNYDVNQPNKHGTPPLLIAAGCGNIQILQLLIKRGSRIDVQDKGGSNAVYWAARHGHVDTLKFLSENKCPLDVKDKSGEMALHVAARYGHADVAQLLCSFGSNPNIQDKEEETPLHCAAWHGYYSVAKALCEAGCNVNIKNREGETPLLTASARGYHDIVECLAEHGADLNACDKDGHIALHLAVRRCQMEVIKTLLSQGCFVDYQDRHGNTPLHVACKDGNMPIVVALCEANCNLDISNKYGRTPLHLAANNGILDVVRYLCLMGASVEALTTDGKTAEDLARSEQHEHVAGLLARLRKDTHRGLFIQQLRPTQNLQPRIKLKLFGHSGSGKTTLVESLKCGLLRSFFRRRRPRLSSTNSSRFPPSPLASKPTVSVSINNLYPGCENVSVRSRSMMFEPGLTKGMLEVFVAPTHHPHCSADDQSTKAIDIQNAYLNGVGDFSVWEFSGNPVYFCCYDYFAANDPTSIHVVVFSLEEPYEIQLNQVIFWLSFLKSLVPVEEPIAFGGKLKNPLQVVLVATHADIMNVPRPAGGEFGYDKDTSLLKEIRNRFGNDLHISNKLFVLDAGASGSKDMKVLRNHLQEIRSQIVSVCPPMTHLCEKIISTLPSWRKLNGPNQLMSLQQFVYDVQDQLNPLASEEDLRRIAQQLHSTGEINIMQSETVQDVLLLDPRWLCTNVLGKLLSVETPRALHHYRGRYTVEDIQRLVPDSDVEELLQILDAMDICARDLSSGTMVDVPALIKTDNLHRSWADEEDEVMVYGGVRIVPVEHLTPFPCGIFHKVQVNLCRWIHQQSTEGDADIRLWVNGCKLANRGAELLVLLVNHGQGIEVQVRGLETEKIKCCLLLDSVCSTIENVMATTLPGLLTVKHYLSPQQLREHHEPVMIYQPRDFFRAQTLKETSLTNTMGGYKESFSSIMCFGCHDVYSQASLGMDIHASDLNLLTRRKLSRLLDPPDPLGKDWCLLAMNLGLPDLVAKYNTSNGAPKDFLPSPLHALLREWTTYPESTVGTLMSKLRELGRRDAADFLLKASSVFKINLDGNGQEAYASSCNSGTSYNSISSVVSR
T1 sequence (P16234 24-1089 D842V): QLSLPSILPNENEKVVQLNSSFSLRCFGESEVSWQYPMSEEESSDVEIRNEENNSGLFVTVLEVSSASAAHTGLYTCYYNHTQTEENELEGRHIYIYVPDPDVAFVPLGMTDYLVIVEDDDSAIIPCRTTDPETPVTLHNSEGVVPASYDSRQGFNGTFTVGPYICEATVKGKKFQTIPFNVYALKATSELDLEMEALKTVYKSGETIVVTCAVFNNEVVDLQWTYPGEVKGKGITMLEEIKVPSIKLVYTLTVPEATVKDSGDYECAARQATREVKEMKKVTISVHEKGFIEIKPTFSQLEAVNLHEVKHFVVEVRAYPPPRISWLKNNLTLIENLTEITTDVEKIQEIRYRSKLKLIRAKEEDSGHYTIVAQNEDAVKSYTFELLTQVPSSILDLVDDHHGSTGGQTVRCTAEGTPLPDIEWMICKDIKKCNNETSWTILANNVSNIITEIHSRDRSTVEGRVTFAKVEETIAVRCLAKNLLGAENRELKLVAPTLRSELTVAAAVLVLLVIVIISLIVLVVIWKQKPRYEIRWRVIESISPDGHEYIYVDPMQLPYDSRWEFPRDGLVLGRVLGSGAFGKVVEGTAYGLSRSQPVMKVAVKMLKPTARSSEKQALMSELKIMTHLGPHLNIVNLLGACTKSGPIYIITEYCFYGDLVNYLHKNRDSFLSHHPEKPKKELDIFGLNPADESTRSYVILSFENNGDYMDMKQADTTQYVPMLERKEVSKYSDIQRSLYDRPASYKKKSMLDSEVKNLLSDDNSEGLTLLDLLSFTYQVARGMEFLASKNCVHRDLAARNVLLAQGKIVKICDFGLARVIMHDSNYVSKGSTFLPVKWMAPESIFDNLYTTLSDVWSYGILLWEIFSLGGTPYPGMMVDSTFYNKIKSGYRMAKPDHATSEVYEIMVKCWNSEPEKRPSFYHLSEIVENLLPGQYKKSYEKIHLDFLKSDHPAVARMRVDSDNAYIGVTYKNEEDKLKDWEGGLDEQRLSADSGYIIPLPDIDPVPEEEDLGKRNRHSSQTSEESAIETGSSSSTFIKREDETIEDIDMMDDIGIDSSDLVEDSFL
T3 sequence (P68400 whole entry): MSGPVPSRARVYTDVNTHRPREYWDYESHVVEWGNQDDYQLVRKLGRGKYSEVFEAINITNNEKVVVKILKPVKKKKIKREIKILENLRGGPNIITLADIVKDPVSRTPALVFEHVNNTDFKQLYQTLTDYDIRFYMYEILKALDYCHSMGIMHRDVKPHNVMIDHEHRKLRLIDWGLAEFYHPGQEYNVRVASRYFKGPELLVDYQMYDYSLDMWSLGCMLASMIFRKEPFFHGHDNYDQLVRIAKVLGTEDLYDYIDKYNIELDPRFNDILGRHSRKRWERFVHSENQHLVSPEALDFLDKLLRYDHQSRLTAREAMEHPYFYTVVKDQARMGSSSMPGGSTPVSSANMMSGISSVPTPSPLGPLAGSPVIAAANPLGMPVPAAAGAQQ
T3 sequence (P67870 whole entry partner): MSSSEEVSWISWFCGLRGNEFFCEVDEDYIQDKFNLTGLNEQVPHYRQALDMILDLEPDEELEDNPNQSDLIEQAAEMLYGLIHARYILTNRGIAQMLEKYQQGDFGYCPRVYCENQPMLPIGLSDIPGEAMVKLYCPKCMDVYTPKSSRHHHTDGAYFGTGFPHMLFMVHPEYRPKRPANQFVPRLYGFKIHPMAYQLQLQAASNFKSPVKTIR

In the case of `Brc1ccc(-c2cnc(Nc3cccc4ccccc34)o2)cc1` [AIU2001, 5-(4-bromophenyl)-N-(naphthalen-1-yl) oxazol-2-amine], the inhibition at 10 µM at PDGFRα(D842V) was found to be 23%; on ALK it was 0%; on CK2, 10%; at SRC (1-530), 10%; on DAPK1, 12%. In addition, the “Average tumor weight at necropsy” value in the data set on A549 xenografts is on record as 1.2 g. Also, the “Body weight versus control mice” value in the data set on A549 xenografts was “did not differ”. Further, the “Inhibition of tumor growth compared to the vehicle” value in the data set with A549 xenografts was found to be 48.3%. Moreover, the γ-H2AX foci result with A549 cells [1] and with H1299 cells [2] was “high levels of γ-H2AX foci” in each case. For the same compound, the “ROS levels” value in the data set on A549 cells [3] and with H1299 cells [4] was “distinctly increased ROS levels” in each case. Further, the “Phosphorylated STAT5” value with Molm-13 cells and with MV4-11 cells was “dose-dependently inhibited phosphorylated STAT5” in each case.
